Measured values from patent US10981891B2, “Antibacterial compounds and uses thereof” (priority 2016, dated 2021).
Converted amounts (≈) assume the structure as drawn.

Each compound was assayed on M. tuberculosis H37Rv (ATCC 27294) (assay: Microplate Alamar Blue assay (MABA), MIC against replicating M. tuberculosis H37Rv). Conditions: Mycobacterium tuberculosis, 168 h; H37Rv, MABA, 7H12 media, 7 days at 37° C.; MIC = lowest concentration reducing fluorescence by 90% relative to controls; read-out: M. tuberculosis MIC.
Type: cell-based

Structure (SMILES) | MIC [µg/mL]
CNCCC(O)(c1cc(OC)nc(OC)c1)C(c1cccc(F)c1)c1cc2cc(C#N)ccc2nc1OC (stereo not drawn) [Example 97, 3-(2-(2,6-Dimethoxypyridin-4-yl)-1-(3-fluorophenyl)-2-hydroxy-4-(methylamino)butyl)-2-methoxyquinoline-6-carbonitrile] | 0.01 (≈ 0.0194 µM)
CCOc1cc(C(c2cc3cc(Br)ccc3nc2OC)C(O)(CCN(C)C)c2cccc3ccoc23)cc(OC)n1 (stereo not drawn) [Example 22, 2-(Benzofuran-7-yl)-1-(6-bromo-2-methoxyquinolin-3-yl)-4-(dimethylamino)-1-(2-ethoxy-6-methoxypyridin-4-yl)butan-2-ol] | < 0.02
COc1cc(C(O)(CCN(C)C)C(c2cc3cc(Br)ccc3nc2OC)c2cccc(OC)c2F)cc(SC)n1 (stereo not drawn) [Example 48, 1-(6-Bromo-2-methoxyquinolin-3-yl)-4-(dimethylamino)-1-(2-fluoro-3-methoxyphenyl)-2-(2-methoxy-6-(methylthio)pyridin-4-yl)butan-2-ol] | < 0.02
COc1cc(C(O)(CCN(C)C)C(c2ccccc2)c2cc3cc(I)ccc3nc2OC)cc(OC)n1 (stereo not drawn) [Example 42, 2-(2,6-Dimethoxypyridin-4-yl)-4-(dimethylamino)-1-(6-iodo-2-methoxyquinolin-3-yl)-1-phenylbutan-2-ol] | < 0.02
COc1cccc(C(c2cc3cc(Br)ccc3nc2OC)C(O)(CCN(C)C)c2cc(C)nc(C)c2)c1OC (stereo not drawn) [Example 37, 1-(6-Bromo-2-methoxyquinolin-3-yl)-1-(2,3-dimethoxyphenyl)-4-(dimethylamino)-2-(2,6-dimethylpyridin-4-yl)butan-2-ol] | 0.08 (≈ 0.135 µM)
CCCOc1cc(C(O)(CCN(C)C)C(c2cc3cc(Br)ccc3nc2OC)c2ccnc(OC)c2OC)cc(OC)n1 (stereo not drawn) [Example 28, 1-(6-Bromo-2-methoxyquinolin-3-yl)-1-(2,3-dimethoxypyridin-4-yl)-4-(dimethylamino)-2-(2-methoxy-6-propoxypyridin-4-yl)butan-2-ol] | 0.01 (≈ 0.0153 µM)
COc1cc(C(O)(CCN(C)C)C(c2cc3cc(Br)ccc3nc2OC)c2ccnc(OC)c2OC)cc(OC(C)C)n1 (stereo not drawn) [Example 18, 1-(6-Bromo-2-methoxyquinolin-3-yl)-1-(2,3-dimethoxypyridin-4-yl)-4-(dimethylamino)-2-(2-isopropoxy-6-methoxypyridin-4-yl)butan-2-ol] | < 0.01
COc1nc2ccc(Br)cc2cc1C(c1ccnc(OC)c1OC)C(O)(CCN(C)C)c1cccc(C)c1 (stereo not drawn) [Example 4, 1-(6-Bromo-2-methoxyquinolin-3-yl)-1-(2,3-dimethoxypyridin-4-yl)-4-(dimethylamino)-2-(m-tolyl)butan-2-ol] | 0.02 (≈ 0.0345 µM)
COc1cc(C(c2cc3cc(C#N)ccc3nc2OC)C(O)(CCN(C)C)c2cccc3ccoc23)cc(OC(C)C)n1 (stereo not drawn) [Example 77, 3-(2-(Benzofuran-7-yl)-4-(dimethylamino)-2-hydroxy-1-(2-isopropoxy-6-methoxypyridin-4-yl)butyl)-2-methoxyquinoline-6-carbonitrile] | < 0.02
COc1cc(C(O)(CCN(C)C)C(c2cc3cc(Br)ccc3nc2OC)c2ccnc(OC)c2OC)cc(N(C)C)n1 (stereo not drawn) [Example 68, 1-(6-Bromo-2-methoxyquinolin-3-yl)-1-(2,3-dimethoxypyridin-4-yl)-4-(dimethylamino)-2-(2-(dimethylamino)-6-methoxypyridin-4-yl)butan-2-ol] | 0.01 (≈ 0.0156 µM)
CNCCC(O)(c1cc(OC)nc(OC)c1)C(c1cc2cc(C#N)ccc2nc1OC)c1cccc2c1OCCO2 (stereo not drawn) [Example 93, 3-(1-(2,3-Dihydrobenzo[b][1,4]dioxin-5-yl)-2-(2,6-dimethoxypyridin-4-yl)-2-hydroxy-4-(methylamino)butyl)-2-methoxyquinoline-6-carbonitrile] | 0.01 (≈ 0.018 µM)
COc1cc(C(O)(CCN(C)C)C(c2cc3cc(C#N)ccc3nc2OC)c2ccnc(OC)c2OC)cc(N(C)C)n1 (stereo not drawn) [Example 94, 3-(1-(2,3-Dimethoxypyridin-4-yl)-4-(dimethylamino)-2-(2-(dimethylamino)-6-methoxypyridin-4-yl)-2-hydroxybutyl)-2-methoxyquinoline-6-carbonitrile] | 0.06 (≈ 0.102 µM)
COc1nc2ccc(C#N)cc2cc1C(c1cccc(F)c1)C(O)(CCN(C)C)c1cc2ccccc2o1 (stereo not drawn) [Example 73, 3-(2-(Benzofuran-2-yl)-4-(dimethylamino)-1-(3-fluorophenyl)-2-hydroxybutyl)-2-methoxyquinoline-6-carbonitrile] | 0.08 (≈ 0.157 µM)
COc1cc(C(O)(CCN(C)C)C(c2cccc(F)c2)c2cc3cc(Br)ccc3nc2OC)cc(OC)n1 (stereo not drawn) [Example 39, 1-(6-Bromo-2-methoxyquinolin-3-yl)-2-(2,6-dimethoxypyridin-4-yl)-4-(dimethylamino)-1-(3-fluorophenyl)butan-2-ol] | < 0.02
COc1cc(C(O)(CCN(C)C)C(c2cc3cc(C#N)ccc3nc2OC)c2cccc(C)c2F)cc(OC(F)F)n1 (stereo not drawn) [Example 88, 3-(2-(2-(Difluoromethoxy)-6-methoxypyridin-4-yl)-4-(dimethylamino)-1-(2-fluoro-3-methylphenyl)-2-hydroxybutyl)-2-methoxyquinoline-6-carbonitrile] | 0.01 (≈ 0.0172 µM)
COc1cc(C(O)(CCN(C)C)C(c2cccc(C)c2)c2cc3cc(Br)ccc3nc2OC)cc(OC)n1 (stereo not drawn) [Example 1, 1-(6-Bromo-2-methoxyquinolin-3-yl)-2-(2,6-dimethoxypyridin-4-yl)-4-(dimethylamino)-1-(m-tolyl)butan-2-ol] | < 0.02
CCOc1cc(C(O)(CCN(C)C)C(c2cc3cc(Cl)ccc3nc2OC)c2cccc(OC)c2F)cc(OCC)n1 (stereo not drawn) [Example 27, 1-(6-Chloro-2-methoxyquinolin-3-yl)-2-(2,6-diethoxypyridin-4-yl)-4-(dimethylamino)-1-(2-fluoro-3-methoxyphenyl)butan-2-ol] | 0.01 (≈ 0.0167 µM)
COc1cc(C(O)(CCN(C)C)C(c2cc3cc(C#N)ccc3nc2OC)c2ccnc(OC)c2OC)cc(OC(F)F)n1 (stereo not drawn) [Example 83, 3-(2-(2-(Difluoromethoxy)-6-methoxypyridin-4-yl)-1-(2,3-dimethoxypyridin-4-yl)-4-(dimethylamino)-2-hydroxybutyl)-2-methoxyquinoline-6-carbonitrile] | < 0.02
COc1cc(C(O)(CCN(C)C)C(c2cc3cc(Br)ccc3nc2OC)c2sc(OC)nc2Cl)cc(OC)n1 (stereo not drawn) [Example 71, 1-(6-Bromo-2-methoxyquinolin-3-yl)-1-(4-chloro-2-methoxythiazol-5-yl)-2-(2,6-dimethoxypyridin-4-yl)-4-(dimethylamino)butan-2-ol] | 0.03 (≈ 0.047 µM)
COc1cc(C(O)(CCN(C)C)C(c2cc3cc(Br)ccc3nc2OC)c2ccnc(OC)c2OC)cc(OC(F)F)n1 (stereo not drawn) [Example 51, 1-(6-Bromo-2-methoxyquinolin-3-yl)-2-(2-(difluoromethoxy)-6-methoxypyridin-4-yl)-1-(2,3-dimethoxypyridin-4-yl)-4-(dimethylamino)butan-2-ol] | < 0.004
CCOc1cc(C(O)(CCN(C)C)C(c2cccc(C)c2)c2cc3cc(Cl)ccc3nc2OC)cc(OCC)n1 (stereo not drawn) [Example 32, 1-(6-Chloro-2-methoxyquinolin-3-yl)-2-(2,6-diethoxypyridin-4-yl)-4-(dimethylamino)-1-(m-tolyl)butan-2-ol] | 0.02 (≈ 0.0355 µM)
COc1cc(C(O)(CCN(C)C)C(c2cc3cc(Br)ccc3nc2OC)c2cccc(OC)c2F)cc(OC(C)C)n1 (stereo not drawn) [Example 16, 1-(6-Bromo-2-methoxyquinolin-3-yl)-4-(dimethylamino)-1-(2-fluoro-3-methoxyphenyl)-2-(2-isopropoxy-6-methoxypyridin-4-yl)butan-2-ol] | < 0.02
COc1cc(C(O)(CCN(C)C)C(c2cc3cc(Br)ccc3nc2OC)c2cc(C)sc2C)cc(OC)n1 (stereo not drawn) [Example 33, 1-(6-Bromo-2-methoxyquinolin-3-yl)-2-(2,6-dimethoxypyridin-4-yl)-4-(dimethylamino)-1-(2,5-dimethylthiophen-3-yl)butan-2-ol] | < 0.02
COc1cc(C(O)(CCN(C)C)C(c2cc3cc(Br)ccc3nc2OC)c2cccc3c2OCCO3)cc(OC(F)F)n1 (stereo not drawn) [Example 58, 1-(6-Bromo-2-methoxyquinolin-3-yl)-2-(2-(difluoromethoxy)-6-methoxypyridin-4-yl)-1-(2,3-dihydrobenzo[b][1,4]dioxin-5-yl)-4-(dimethylamino)butan-2-ol] | < 0.01
COc1cc(C(c2cc3cc(Br)ccc3nc2OC)C(O)(CCN(C)C)c2cccc3ccoc23)cc(OC(C)C)n1 (stereo not drawn) [Example 21, 2-(Benzofuran-7-yl)-1-(6-bromo-2-methoxyquinolin-3-yl)-4-(dimethylamino)-1-(2-isopropoxy-6-methoxypyridin-4-yl)butan-2-ol] | < 0.02
CCSc1cc(C(O)(CCN(C)C)C(c2cc3cc(Br)ccc3nc2OC)c2cccc(OC)c2F)cc(SCC)n1 (stereo not drawn) [Example 44, 2-(2,6-Bis(ethylthio)pyridin-4-yl)-1-(6-bromo-2-methoxyquinolin-3-yl)-4-(dimethylamino)-1-(2-fluoro-3-methoxyphenyl)butan-2-ol] | < 0.02
COc1cc(C(O)(CCN(C)C)C(c2ccc(C)s2)c2cc3cc(C#N)ccc3nc2OC)cc(OC)n1 (stereo not drawn) [Example 75, 3-(2-(2,6-Dimethoxypyridin-4-yl)-4-(dimethylamino)-2-hydroxy-1-(5-methylthiophen-2-yl)butyl)-2-methoxyquinoline-6-carbonitrile] | 0.19 (≈ 0.357 µM)
CCOc1cc(C(O)(CCN(C)C)C(c2cc3cc(Br)ccc3nc2OC)c2ccnc(OC)c2OC)cc(OC(C)C)n1 (stereo not drawn) [Example 23, 1-(6-Bromo-2-methoxyquinolin-3-yl)-1-(2,3-dimethoxypyridin-4-yl)-4-(dimethylamino)-2-(2-ethoxy-6-isopropoxypyridin-4-yl)butan-2-ol] | < 0.02
CCOc1cc(C(O)(CCN(C)C)C(c2cc3cc(Br)ccc3nc2OC)c2cccc(OC)c2F)cc(OC)n1 (stereo not drawn) [Example 17, 1-(6-Bromo-2-methoxyquinolin-3-yl)-4-(dimethylamino)-2-(2-ethoxy-6-methoxypyridin-4-yl)-1-(2-fluoro-3-methoxyphenyl)butan-2-ol] | < 0.01
COc1nc2ccc(Br)cc2cc1C(c1ccccc1)C(O)(CCN(C)C)c1cccc2ccoc12 (stereo not drawn) [Example 2, 2-(Benzofuran-7-yl)-1-(6-bromo-2-methoxyquinolin-3-yl)-4-(dimethylamino)-1-phenylbutan-2-ol] | 0.07 (≈ 0.128 µM)
